Results on 9 compounds are retold here after patent US20030207930A1 (priority 2000, published 2003).

Read-outs that look alike come from different tables or passages of the source.

A short description of data set [1]: dissolving profile of film-coated tablet. The format is physicochemical. The following applies: within 15 minutes. On the procedure: In addition, an improved dissolving profile in a tablet can be assured. In studies of the dissolving profile, it was established that the calcium salt, especially the tetrahydrate thereof, is released by 100% from a film-coated tablet within 15 minutes.
In addition, an improved dissolving profile in a tablet can be assured. In studies of the dissolving profile, it was established that the magnesium salt, especially the hexahydrate thereof, is released by 100% from a film-coated tablet within 15 minutes.

Data set [2] is described as follows: intrinsic dissolving rates. Format: physicochemical. Conditions: pH 1, pH 4.5 and pH 6.8; compared with valsartan.
The conditions of data set [3]: 25° C., 4 hours.
For data set [4] the following is noted: N2 atmosphere, heating rate 10 K/min.
For data set [5] the following is noted: open container and sealed ampoule.
The nature of data set [6]: hygroscopicity of the material obtained. Format: physicochemical. Conditions: material as obtained.
Setting [7] is: step 1, relative humidity 40% (cycle 40-90).
Setting [8] is: step 2, relative humidity 50% (cycle 40-90).
Setting [9] is: step 3, relative humidity 60% (cycle 40-90).
[10] abbreviates: step 4, relative humidity 70% (cycle 40-90).
Setting [11] is: step 5, relative humidity 80% (cycle 40-90).
[12] abbreviates: step 6, relative humidity 90% (cycle 40-90).
Where [13] appears, read: step 7, relative humidity 80% (first cycle 90-0).
[14] abbreviates: step 8, relative humidity 70% (first cycle 90-0).
The mark [15] stands for this setting: step 9, relative humidity 60% (first cycle 90-0).
The mark [16] stands for this setting: step 10, relative humidity 50% (first cycle 90-0).
The mark [17] stands for this setting: step 11, relative humidity 40% (first cycle 90-0).
Setting [18] is: step 12, relative humidity 30% (first cycle 90-0).
Setting [19] is: step 13, relative humidity 20% (first cycle 90-0).
Setting [20] is: step 14, relative humidity 10% (first cycle 90-0).
Setting [21] is: step 15, relative humidity 0% (first cycle 90-0).
Setting [22] is: step 16, relative humidity 10% (cycle 0-90).
[23] abbreviates: step 17, relative humidity 20% (cycle 0-90).
The mark [24] stands for this setting: step 18, relative humidity 30% (cycle 0-90).
[25] abbreviates: step 19, relative humidity 40% (cycle 0-90).
Where [26] appears, read: step 20, relative humidity 50% (cycle 0-90).
Where [27] appears, read: step 21, relative humidity 60% (cycle 0-90).
Where [28] appears, read: step 22, relative humidity 70% (cycle 0-90).
Setting [29] is: step 23, relative humidity 80% (cycle 0-90).
[30] abbreviates: step 24, relative humidity 90% (cycle 0-90).
Setting [31] is: step 25, relative humidity 0% (second cycle 90-0).
The mark [32] stands for this setting: step 26, relative humidity (starting value).

As for `CCCCC(=O)N(Cc1ccc(-c2ccccc2-c2nn[n-]n2)cc1)C(C(=O)[O-])C(C)C.[Ca+2]` (centres unmarked) [calcium salt of valsartan], the “release from a film-coated tablet” value in data set [1] worked out at 100%. Also, the intrinsic dissolving rates entry in data set [2] is “improved values over those of valsartan”.
In the case of `CCCCC(=O)N(Cc1ccc(-c2ccccc2-c2nn[n-]n2)cc1)C(C(=O)[O-])C(C)C.[K+].[K+]` (centres unmarked) [di-potassium salt of valsartan], the intrinsic dissolving rates result in data set [2] was “improved values over those of valsartan”.
`CCCCC(=O)N(Cc1ccc(-c2ccccc2-c2nnn[nH]2)cc1)[C@H](C(=O)[O-])C(C)C.CCCCC(=O)N(Cc1ccc(-c2ccccc2-c2nnn[nH]2)cc1)[C@H](C(=O)[O-])C(C)C.O.O.O.O.O.O.[Mg+2]` [hexahydrate of the magnesium salt of (S)-N-(1-carboxy-2-methylprop-1-yl)-N-pentanoyl-N-[2′-(1H-tetrazol-5-yl)biphenyl-4-ylmethyl]-amine]: the “water absorption or water loss (overall finding)” value in data set [3] (range of 20 to 80% relative humidity, measurement error about 0.1%) is listed as “weak, reproducible water absorption or water loss”. Moreover, the “water absorption or loss in %” value in data set [3] (setting [7]) came out at 0.06%; in data set [3] (setting [8]), 0.14%; in data set [3] (setting [9]), 0.19%; in data set [3] (setting [10]), 0.25%; in data set [3] (setting [11]) it was 0.41%; in data set [3] (setting [12]), 0.58%. In addition, the “water absorption or loss in %” value is listed as 0.32% in data set [3] (setting [13]); 0.22% in data set [3] (setting [14]); 0.14% in data set [3] (setting [15]); 0.08% in data set [3] (setting [16]); 0.16% in data set [3] (setting [17]); −0.03% in data set [3] (setting [18]). Further, the “water absorption or loss in %” value in data set [3] (setting [19]) is −0.07%; in data set [3] (setting [20]), −0.12%; in data set [3] (setting [21]) it was −4.3%; in data set [3] (setting [22]), −0.79%; in data set [3] (setting [23]), −0.14%; in data set [3] (setting [24]), −0.05%. Moreover, the “water absorption or loss in %” value in data set [3] (setting [25]) came out at 0.02%; in data set [3] (setting [26]), 0.09%; in data set [3] (setting [27]) it was 0.14%; in data set [3] (setting [28]) it was 0.20%; in data set [3] (setting [29]) it was 0.28%; in data set [3] (setting [30]), 0.51%. Moreover, the results for the “water absorption or loss in %” value in data set [3] (setting [31]) and in data set [3] (setting [32]) were −3.68% and −0.01%, respectively. Also, the “weight loss or water loss in %” value came out at 0% in data set [4] (25° C.); 1.2% in data set [4] (50° C.); 4.2% in data set [4] (75° C.); 11.0% in data set [4] (100° C.); 16.7% in data set [4] (125° C.); 17.7% in data set [4] (150° C.). Besides, the “weight loss or water loss in %” value in data set [4] (175° C.) is given as 18.3%; in data set [4] (200° C.), 18.5%; in data set [4] (225° C.), 18.7%; in data set [4] (250° C.), 18.9%; in data set [4] (275° C.), 19.3%. Also, the “water content in stability test” value in data set [5] is “remains constant”.
Regarding “(S)-N-(1-carboxy-2-methyl-prop-1-yl)-N-pentanoyl-N-[2′-(1H-tetrazol-5-yl)-biphenyl-4-ylmethyl]-amine calcium salt tetrahydrate”, in data set [3] (0 to 90% relative humidity, measurement error about 0.1%), the “water absorption or loss (overall finding)” value is on record as “no measurable water absorption or loss”. Moreover, the “water absorption or loss in %” value is given as 0.04% in data set [3] (setting [7]); 0.04% in data set [3] (setting [8]); 0.03% in data set [3] (setting [9]); 0.02% in data set [3] (setting [10]); 0.02% in data set [3] (setting [11]); 0.00% in data set [3] (setting [12]). The “water absorption or loss in %” value in data set [3] (setting [13]) was 0.02%; in data set [3] (setting [14]), 0.02%; in data set [3] (setting [15]) it was 0.02%; in data set [3] (setting [16]), 0.02%; in data set [3] (setting [17]), 0.02%; in data set [3] (setting [18]), 0.01%. For the same compound, the “water absorption or loss in %” value is listed as 0.01% in data set [3] (setting [19]); 0.00% in data set [3] (setting [20]); −0.01% in data set [3] (setting [21]); 0.00% in data set [3] (setting [22]); 0.00% in data set [3] (setting [23]); 0.00% in data set [3] (setting [24]). Moreover, the “water absorption or loss in %” value in data set [3] (setting [25]) is listed as 0.00%; in data set [3] (setting [26]) it was 0.00%; in data set [3] (setting [27]), 0.01%; in data set [3] (setting [28]) it was 0.00%; in data set [3] (setting [29]), −0.01%; in data set [3] (setting [30]), −0.02%. Further, the “water absorption or loss in %” value in data set [3] (setting [31]) is recorded as −0.02%; in data set [3] (setting [32]), 0.00%. In addition, the “weight loss or water loss in %” value in data set [4] (25° C.) amounted to 0%; in data set [4] (50° C.), 0%; in data set [4] (75° C.), 0.5%; in data set [4] (100° C.), 3.5%; in data set [4] (125° C.), 10.2%; in data set [4] (150° C.), 12.4%. Further, the “weight loss or water loss in %” value is 12.8% in data set [4] (175° C.); 12.9% in data set [4] (200° C.); 12.9% in data set [4] (225° C.); 13.0% in data set [4] (250° C.); 13.2% in data set [4] (275° C.). Besides, the “water content in stability test” value in data set [5] was “remains constant”.
Take “(S)-N-(1-carboxy-2-methyl-prop-1-yl)-N-pentanoyl-N-[2′-(1H-tetrazol-5-yl)-biphenyl-4-ylmethyl]-amine dipotassium salt [Example 4]”: in data set [6], the hygroscopicity entry is recorded as “hygroscopic”.
The same measure, in the same setting: the result for “(S)-N-(1-carboxy-2-methyl-prop-1-yl)-N-pentanoyl-N-[2′-(1H-tetrazol-5-yl)-biphenyl-4-ylmethyl]-amine disodium salt [Example 5]” reads “hygroscopic”; that for “Bis-dibutylammonium Salt of Valsartan [Example 16]”, “slightly hygroscopic”; that for “Hydrate of Valsartan Disodium Salt (2.4 ±1.0 Mole H2O) [Example 11]”, “slightly hygroscopic”.
Take “Hydrate of the Valsartan Dipotassium Salt (3.4±1.0 mole H2O) [Example 12]”: in data set [6], the hygroscopicity entry is reported as “slightly hygroscopic”.
